ChEMBL document CHEMBL4602715, “Efficacy and Tolerability of Pyrazolo[1,5-a]pyrimidine RET Kinase Inhibitors for the Treatment of Lung Adenocarcinoma” (ACS Med Chem Lett, 2020)
Converted amounts (≈) assume the structure as drawn. The source made the active and inactive calls. No cut-off for these calls is given here.

Legend:
LC-2-ad [1] = assay: Cytotoxicity against human LC2/ad cells assessed as reduction in cell viability incubated for 6 days by CellTiter Glo assay; assay type: cell-based; details: 144 h
[2] = Clearance in BALB/c mouse at 2 mg/kg, iv measured upto 24 hrs by LC-MS/MS analysis; assay type: ADME, organism-based; details: in vivo
[3] = Volume of distribution at steady state in BALB/c mouse at 2 mg/kg, iv measured upto 24 hrs by LC-MS/MS analysis; assay type: ADME, organism-based; details: in vivo, read-out: Vdss
[4] = Half life in BALB/c mouse at 2 mg/kg, iv measured upto 24 hrs by LC-MS/MS analysis; assay type: ADME, organism-based; details: in vivo
[5] = AUC in BALB/c mouse at 2 mg/kg, iv measured upto 24 hrs by LC-MS/MS analysis; assay type: ADME, organism-based; set-up: dose 2 mg/kg, time < 24 hr, route intravenous; details: in vivo
[6] = Cmax in BALB/c mouse at 2 mg/kg, iv measured upto 24 hrs by LC-MS/MS analysis; assay type: ADME, organism-based; set-up: dose 2 mg/kg, route intravenous; details: in vivo
[7] = Half life in BALB/c mouse at 10 mg/kg, po measured upto 24 hrs by LC-MS/MS analysis; assay type: ADME, organism-based; details: in vivo
[8] = AUC in BALB/c mouse at 10 mg/kg, po measured upto 24 hrs by LC-MS/MS analysis; assay type: ADME, organism-based; set-up: dose 10 mg/kg, time < 24 hr, route oral; details: in vivo
[9] = Cmax in BALB/c mouse at 10 mg/kg, po measured upto 24 hrs by LC-MS/MS analysis; assay type: ADME, organism-based; set-up: dose 10 mg/kg, route oral; details: in vivo
[10] = Oral bioavailability in BALB/c mouse at 10 mg/kg measured upto 24 hrs by LC-MS/MS analysis; assay type: ADME, organism-based; details: in vivo
BaF3 = assay: Cytotoxicity against mouse BA/F3 cells assessed as reduction in cell viability incubated for 48 hrs by brightglo-luciferase reporter gene assay; assay type: cell-based; details: BaF3, 48 h
Bcr/Abl fusion protein = Bcr/Abl fusion protein (Homo sapiens, UniProt P00519); assay: Inhibition of BCR/ABL (unknown origin) transfected in mouse Ba/F3 cells assessed as reduction in cell viability incubated for 48 hrs by brightglo-luciferase reporter gene assay; assay type: cell-based, BaF3
Rattus norvegicus [11] = assay: Antitumor activity against rat RIE cells transfected with KIF5B/RET xenografted in Harlan Foxn1 nude mouse assessed as tumor regression at 10 to 60 mg/kg, po qd for 14 days; assay type: functional, organism-based
Rattus norvegicus [12] = assay: Antitumor activity against rat RIE cells transfected with KIF5B/RET xenografted in Harlan Foxn1 nude mouse assessed as reduction in visible vasculature at 10 to 60 mg/kg, po qd for 14 days; assay type: functional, organism-based
Rattus norvegicus [13] = assay: Antitumor activity against rat RIE cells transfected with KIF5B/RET xenografted in Harlan Foxn1 nude mouse assessed as tumor growth inhibition at 1 mg/kg, po qd for 10 days; assay type: functional, organism-based
Rattus norvegicus [14] = assay: Antitumor activity against rat RIE cells transfected with KIF5B/RET xenografted in Harlan Foxn1 nude mouse assessed as tumor stasis at 3 mg/kg, po qd for 10 days; assay type: functional, organism-based
Rattus norvegicus [15] = assay: Antitumor activity against rat RIE cells transfected with KIF5B/RET xenografted in Harlan Foxn1 nude mouse assessed as tumor regression at 10 mg/kg, po qd for 10 days; assay type: functional, organism-based
Mus musculus [16] = assay: In vivo inhibition of KIF5B/RET transfected in rat RIE cells xenografted in Harlan Foxn1 nude mouse assessed as reduction in intratumoral RET phosphorylation at 1 to 3 mg/kg, po qd for 10 days and measured after 5 hrs post-last dose by Western blot analysis; assay type: functional, organism-based
LC-2-ad [17] = assay: Antitumor activity against human LC2/ad cells xenografted in NSG mouse assessed as reduction in tumor volume at 10 mg/kg, po qd for 21 days measured following cessation of drug treatment; assay type: functional, organism-based
Mus musculus [18] = assay: In vivo inhibition of KIF5B/RET transfected in rat RIE cells xenografted in Harlan Foxn1 nude mouse assessed as reduction in intratumoral RET phosphorylation at 1 to 3 mg/kg, po qd for 10 days and measured after 24 hrs post-last dose by Western blot analysis; assay type: functional, organism-based
[19] = AUC in BALB/c mouse at 5 mg/kg, iv measured upto 24 hrs by LC-MS/MS analysis; assay type: ADME, organism-based; set-up: dose 5 mg/kg, time < 24 hr, route intravenous; details: in vivo
[20] = Cmax in BALB/c mouse at 5 mg/kg, iv measured upto 24 hrs by LC-MS/MS analysis; assay type: ADME, organism-based; set-up: dose 5 mg/kg, route intravenous; details: in vivo
[21] = Half life in BALB/c mouse at 5 mg/kg, iv measured upto 24 hrs by LC-MS/MS analysis; assay type: ADME, organism-based; details: in vivo
[22] = Clearance in BALB/c mouse at 5 mg/kg, iv measured upto 24 hrs by LC-MS/MS analysis; assay type: ADME, organism-based; details: in vivo
[23] = Volume of distribution at steady state in BALB/c mouse at 5 mg/kg, iv measured upto 24 hrs by LC-MS/MS analysis; assay type: ADME, organism-based; details: in vivo, read-out: Vdss
[24] = Aqueous solubility of compound at pH 6.8 incubated for 24 hrs by HPLC/UV analysis; assay type: physicochemical
[25] = Toxicity in CD-1 mouse assessed as marginal zone depletion in spleen at 10 mg/kg, po qd for 4 weeks by histopathological analysis; assay type: organism-based; details: in vivo, 672 h
[26] = Toxicity in CD-1 mouse assessed as neuronal changes in brain at 10 mg/kg, po qd for 4 weeks by histopathological analysis; assay type: organism-based; details: in vivo, 672 h
[27] = Toxicity in CD-1 mouse assessed as changes in GI neurons at 10 mg/kg, po qd for 4 weeks by histopathological analysis; assay type: organism-based; details: in vivo, 672 h
[28] = Toxicity in CD-1 mouse assessed as changes in lung at 10 mg/kg, po qd for 4 weeks by histopathological analysis; assay type: organism-based; details: in vivo, 672 h
[29] = Toxicity in CD-1 mouse assessed as pancreatic vacuolation at 10 mg/kg, po qd for 4 weeks by histopathological analysis; assay type: organism-based; details: in vivo, 672 h
[30] = Toxicity in CD-1 mouse assessed as decrease in germinal centre cellularity in lymph nodes at 10 mg/kg, po qd for 4 weeks by histopathological analysis; assay type: organism-based; details: in vivo, 672 h

Bcr/Abl fusion protein, sequence (P00519 whole entry, the tested form may be a part): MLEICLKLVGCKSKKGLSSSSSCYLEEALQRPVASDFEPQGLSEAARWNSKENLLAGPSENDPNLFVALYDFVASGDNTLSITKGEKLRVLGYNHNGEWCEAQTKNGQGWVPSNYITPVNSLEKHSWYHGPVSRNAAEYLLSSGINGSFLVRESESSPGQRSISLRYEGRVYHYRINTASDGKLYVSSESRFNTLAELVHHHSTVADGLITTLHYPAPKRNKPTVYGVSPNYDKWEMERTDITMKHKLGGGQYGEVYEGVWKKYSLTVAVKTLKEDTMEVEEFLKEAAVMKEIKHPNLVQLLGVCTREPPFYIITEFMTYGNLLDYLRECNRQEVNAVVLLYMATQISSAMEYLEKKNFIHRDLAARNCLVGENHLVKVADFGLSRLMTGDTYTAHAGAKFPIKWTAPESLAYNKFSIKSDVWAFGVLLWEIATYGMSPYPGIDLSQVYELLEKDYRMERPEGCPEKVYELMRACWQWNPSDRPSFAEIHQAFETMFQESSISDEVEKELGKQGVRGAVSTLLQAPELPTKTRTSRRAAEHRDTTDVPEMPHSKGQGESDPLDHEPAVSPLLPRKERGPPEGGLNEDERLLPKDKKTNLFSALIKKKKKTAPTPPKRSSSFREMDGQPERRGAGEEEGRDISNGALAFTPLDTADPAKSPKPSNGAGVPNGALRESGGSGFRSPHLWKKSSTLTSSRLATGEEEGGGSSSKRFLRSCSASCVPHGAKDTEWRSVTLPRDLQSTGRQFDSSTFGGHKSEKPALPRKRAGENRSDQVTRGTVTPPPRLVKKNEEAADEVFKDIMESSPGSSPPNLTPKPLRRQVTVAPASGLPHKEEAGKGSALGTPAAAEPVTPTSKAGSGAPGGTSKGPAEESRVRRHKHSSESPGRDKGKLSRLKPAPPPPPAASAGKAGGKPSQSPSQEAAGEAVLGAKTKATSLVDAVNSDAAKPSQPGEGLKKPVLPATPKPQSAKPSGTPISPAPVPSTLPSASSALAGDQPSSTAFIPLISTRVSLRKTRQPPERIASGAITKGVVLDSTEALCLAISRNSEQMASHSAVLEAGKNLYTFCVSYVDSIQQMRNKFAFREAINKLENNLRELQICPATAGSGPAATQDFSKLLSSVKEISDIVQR
Bcr/Abl fusion protein, sequence (P11274 whole entry, further chain, the tested form may be a part): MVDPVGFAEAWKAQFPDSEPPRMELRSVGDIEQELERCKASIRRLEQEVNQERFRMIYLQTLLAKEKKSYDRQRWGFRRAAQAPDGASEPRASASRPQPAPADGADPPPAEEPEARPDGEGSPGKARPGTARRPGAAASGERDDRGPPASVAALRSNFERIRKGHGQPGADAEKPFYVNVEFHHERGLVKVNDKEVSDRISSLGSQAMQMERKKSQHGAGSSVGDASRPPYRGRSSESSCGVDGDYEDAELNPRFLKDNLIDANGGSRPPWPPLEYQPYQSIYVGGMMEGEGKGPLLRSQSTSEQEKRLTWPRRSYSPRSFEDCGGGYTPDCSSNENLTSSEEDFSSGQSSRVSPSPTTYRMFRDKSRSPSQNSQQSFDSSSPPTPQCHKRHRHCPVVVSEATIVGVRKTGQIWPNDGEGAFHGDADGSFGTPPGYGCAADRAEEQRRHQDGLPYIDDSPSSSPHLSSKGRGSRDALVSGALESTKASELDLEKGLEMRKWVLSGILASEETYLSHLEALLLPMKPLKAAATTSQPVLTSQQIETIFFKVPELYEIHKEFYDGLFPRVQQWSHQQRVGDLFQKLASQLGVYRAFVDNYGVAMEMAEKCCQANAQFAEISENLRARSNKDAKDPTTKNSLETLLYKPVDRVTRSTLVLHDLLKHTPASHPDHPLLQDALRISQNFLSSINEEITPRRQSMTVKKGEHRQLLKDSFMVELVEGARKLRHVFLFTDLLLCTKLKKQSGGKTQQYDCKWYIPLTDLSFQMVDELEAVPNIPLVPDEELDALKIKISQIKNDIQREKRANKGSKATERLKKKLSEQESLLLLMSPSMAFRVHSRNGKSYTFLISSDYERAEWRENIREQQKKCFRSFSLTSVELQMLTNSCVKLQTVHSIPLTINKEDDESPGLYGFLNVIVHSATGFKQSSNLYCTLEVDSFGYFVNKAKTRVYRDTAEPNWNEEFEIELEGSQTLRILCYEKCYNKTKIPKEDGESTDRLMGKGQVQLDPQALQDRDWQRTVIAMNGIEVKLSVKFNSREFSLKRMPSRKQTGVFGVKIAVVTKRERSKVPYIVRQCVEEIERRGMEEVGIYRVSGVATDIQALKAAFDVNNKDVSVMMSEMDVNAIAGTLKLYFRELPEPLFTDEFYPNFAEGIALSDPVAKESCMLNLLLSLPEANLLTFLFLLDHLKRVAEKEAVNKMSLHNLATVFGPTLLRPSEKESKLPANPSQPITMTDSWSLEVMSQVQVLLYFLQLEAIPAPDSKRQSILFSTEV

For `CN1C(C)(C)CC(Nc2nc3c(-c4ccc(C(=O)N5CCN(S(C)(=O)=O)CC5)cc4)cnn3c(N)c2-c2ccccc2)CC1(C)C`, the IC50 (LC-2-ad [1]) was 2800 nM, the clearance [2] was 110 mL/min/kg and the Vd [3] was 11 L/kg. For the same compound, the half-life [4] was 1.6 h, the AUC at 24 h [5] was 0.49 µM·h and the Cmax [6] was 450 nM. The half-life [7] was 2.2 h, the AUC at 24 h [8] was 0.34 µM·h and the Cmax [9] was 100 nM. For the same compound, the bioavailability [10] was 14%.
Compound `COc1ccc(-c2cnn3c(N)c(-c4nccs4)c(OC4CCN(C)CC4)nc23)cc1OC` has an IC50 (BaF3) greater than 11000 nM and an IC50 (Bcr/Abl fusion protein) greater than 10000 nM.
In the case of `COc1ccc(-c2cnn3c(N)c(-c4ccccc4)c(NC4CC(C)(C)N(C)C(C)(C)C4)nc23)cc1OC` [listing 1 of 2 here], the Activity (Rattus norvegicus [11]) is reported as “Active”, the Activity (Rattus norvegicus [12]) is reported as “Active” and the Activity (Rattus norvegicus [13]) is reported as “Active”. The Activity (Rattus norvegicus [14]) was “Active”, the Activity (Rattus norvegicus [15]) was “Active” and the inhibition (Mus musculus [16]) was “Active”. For the same compound, the Activity (LC-2-ad [17]) was “Active” and the inhibition (Mus musculus [18]) was “inactive”.
Compound `COc1ccc(-c2cnn3c(N)c(-c4ccccc4)c(NC4CC(C)(C)N(C)C(C)(C)C4)nc23)cc1OC` [listing 2 of 2 here] has an AUC at 24 h [19] of 3.2 µM·h, a Cmax [20] of 1100 nM and a half-life [21] of 3.9 h. The clearance [22] was 51 mL/min/kg, the Vd [23] was 13 L/kg and the IC50 (LC-2-ad [1]) was 1500 nM. For the same compound, the solubility at 24 h [24] was 48 µM (≈ 24.7 µg/mL), the Activity [25] was “Toxic” and the Activity [26] was “Non-Toxic”. For the same compound, the Activity [27] was “Non-Toxic”, the Activity [28] was “Non-Toxic” and the Activity [29] was “Toxic”. The Activity [30] was “Toxic”.
For `COc1ccc(-c2cnn3c(N)c(-c4ccccc4)c(OC4CCN(C)CC4)nc23)cc1OC`, the IC50 (BaF3) was greater than 11000 nM, the IC50 (Bcr/Abl fusion protein) was 870 nM and the IC50 (LC-2-ad [1]) was 1600 nM. For the same compound, the solubility at 24 h [24] was 7.1 µM (≈ 3.26 µg/mL).
`COc1ccc(-c2cnn3c(N)c(-c4ccccc4)c(NCCCN(C)C)nc23)cc1OC` gave an IC50 (LC-2-ad [1]) greater than 10000 nM and a solubility at 24 h [24] greater than 175 µM.
